Data published in patent US7973006B2, “Antibacterial agent based on fatty acid esters of hydroxy carboxylic acid acids” (Purac Biochem B.V., priority 2007, dated 2011).
Values joined by “and” are separate entries in the source; they are usually repeats but may differ in a detail not shown here. Equal values may be shown once.

Experiments:
[1] = test system: Escherichia coli (ATCC 8739); assay: Bioscreen growth rate in brain heart infusion broth with lactylate and polylysine; format: cell-based
[2] = test system: Salmonella Typhimurium ATCC 13311; assay: Decontamination of inoculated chicken filets, surviving cell count; format: cell-based; settings: for Salmonella Typhimurium on chicken filets: individual, 12° C.
Procedure: Salmonella Typhimurium ATCC 13311 and Escherichia coli O157:H7 ATCC 700728 were grown in sterile screw capped tubes containing Brain heart infusion broth for 18-24 hours at 30° C.
Chicken filets (150-200 g) were trimmed, vacuum packaged and stored at 4-7° C. Filets were subsequently sterilized by gamma-irradiation (average radiation dose: 12 kiloGray).
1 ml of an overnight culture of Salmonella Typhimurium in brain heart infusion both was diluted 1000 times with sterile 0.8% (w/v) NaCl and 0.1% (w/v) peptone. 0.5 ml of this diluted culture was transferred to one side of the filet. The inoculum was distributed by gently rubbing the entire surface of the filet. This was repeated for the other side of the filet. Inoculation was carried out at 6° C. Inoculated filets were rested for 60-120 min at 6° C. to allow attachment of the cells.
Chicken filets were briefly dipped and completely submersed in 1 l of a solution containing the appropriate formulation and then transferred to 400 ml Bagfilter® lateral filter bags (Interscience, St Nom, France) containing 5 ml of the appropriate formulation. Bags were vacuum-sealed and incubated at 12° C. for up to 7 days until further analysis. Time zero samples were plated within 30 min after dipping.
Surviving Salmonella Typhimurium on chicken filets were counted as follows: a sealed bag was opened and to this was added 2 times the net weight sterile dilution fluid ([…] NaCl and 0.1% (w/v) bacteriological peptone). Duplicate filets were homogenized for 1 min. in a Bagmixer® 400 paddle labblender (Interscience, St Nom, France). 50 μl of the homogenates or dilutions thereof were plated on duplicate Salmonella chromogenic agar plates (CM1007) with cefsulodin, novobiocin supplement (SR0194) (Oxoid, Basingstoke, United Kingdom) using an Eddyjet type 1.23 spiral plater (IUL Instruments, Barcelona, Spain). Plates were incubated for 24-48 hours at 30° C. and then counted. Salmonella numbers were expressed as log10 colony forming units per ml homogenate.
The compositions of the formulations that were studied are shown in Table 2. ε-Polylysine and lactylates were dissolved in demineralised water and sterilized for 20 min at 120° C.

[3] = test system: Salmonella entiritidis (ATCC 13076); assay: Bioscreen growth rate in brain heart infusion broth with lactylate and polylysine; format: cell-based
Procedure: (§1) The following cultures were used in a study: Escherichia coli serotype O157:H7 (ATCC 700728), Salmonella typhimurium (ATCC 13311) and Salmonella entiritidis (ATCC 13076). All cultures were transferred daily in screw-capped tubes containing 10 ml brain heart infusion broth. Cultures were incubated at 30° C. without agitation. Brain heart infusion broth was prepared with increasing amounts of lactylate and polylysine. The concentration range for the caprylic (C8) lactylate was as from 0 to 0.45% in 10 0.05% steps, for the capric (C10) lactylate was as from 0 to 0.09% in 10 0.01% steps, for the lauric (C12) lactylate was as from 0 to 0.009% in 10 0.001% steps and for the tetradecanoic (C14) lactylate was as from 0 to 0.009% in 10 0.001% steps. Lactylates were combined with polylysine. The concentration range for the polylysine was as from 0 to 0.0675% in 10 0.0075% steps. […] The pH of the media was adjusted to 6.1-6.2 with 1 N HCl or 1 N NaOH. Media were prepared in 10 ml quantities and sterilized by filtration. 300 μl of each medium was transferred to a panel of a sterile Bioscreen® honeycomb 100 well plate. Well plates were inoculated with 5 μl of a culture that was grown overnight in brain heart infusion broth using a sterile 5 μl repeating dispenser. Growth rates were determined with a Bioscreen® C that kinetically measures the development of turbidity by vertical photometry. The plates were incubated for 16-24 hours at 37° C., the optical density of the cultures was measured every 30 minutes at 420-580 nm using a wide band filter. The Bioscreen® measures at set time intervals the optical density of the cultures. […] The purpose of further data processing is to ascertain whether two […] act independently of each other or whether they stimulate each other in their inhibitory action (synergy) or cancel out each other inhibitory effect (antagonism). When a certain compound has no effect on an organism the specific growth rate of this organism (μ) can be expressed as a function (f) of the growth limiting substrate concentration (s) by for example the Monod equation, which reads: μ=μmax·s/(Ks+s), where μmax represents the maximum specific growth rate, s the standing concentration of the growth limiting substrate in the medium and Ks the substrate concentration where μ=0.5μmax. However, when the presence of an inhibitor P affects cell growth the function f for μ must be modified i.e. μ=f(s,p), where p represents the concentration of inhibitor P. Numerous studies of growth inhibition kinetics of bacteria have shown that many inhibitors behave as non-competitive inhibitors. This implies that only the maximum specific growth rate (μmax) value and not the affinity (Ks) is affected. Therefore the specific growth rate in the presence of inhibitor can be written as: μ=μi·s/(Ks+s), where μi is the maximal specific growth rate in the presence of a inhibitor P. The relationship between μi and μmax and the concentration of the inhibitor P was describes using the Logistic Dose Response equation, which reads: μi/μmax=1/(1+(p/p0.5)^b) (Jungbauer, A. (2001). The logistic dose response function: a robust fitting function for transition phenomena in life sciences. J. Clinical Ligand Assay 24: 270-274). In this equation p represents the concentration of inhibitor P and p0.5 the concentration of P where μi=0.5μmax; μmax is the maximum specific growth rate that is the specific growth rate in the absence of inhibitor P, b is a dimensionless quantity, which determines the relationship between μi and p. Combining the Monod and Logistic Dose Response equation it can be written as: μ=μmax(s/Ks+s)/(1+(p/p0.5)^b). In batch culture where s is usually many times higher than Ks this equation reduces to μ=μmax/(1+(p/p0.5)^b). When comparing different organisms grown under the same conditions, or the same organism grown under different conditions, it is more meaningful to use relative growth rate, rather than absolute growth rates as standards of comparison. […]

[4] = test system: Salmonella typhimurium (ATCC 13311); assay: as above; format: cell-based
Procedure: as §1

[5] = test system: Escherichia coli serotype O157:H7 (ATCC 700728); assay: as above; format: cell-based
Procedure: as §1

Enterococcus faecalis = settings: EP 1000542; cited from earlier work
Candida albicans = settings: EP 1000542; cited from earlier work
[6] = 0.45% (w/w) in broth, pH 6.1-6.2, 37° C.
[7] = 0.0225% (w/w) in broth, pH 6.1-6.2, 37° C.

CCCCCCCC(=O)OC(C)C(=O)[O-].[Na+] (centres unmarked) [C8-lactylate, sodium salt of octanoyllactylate]
Observed Relative Growth Rate [1, 6]: 0.5625 | Salmonella Typhimurium on chicken filets ([2]; 0.2% (w/v), day 0): 3.85 log10 colony forming units (CFU)/ml | Salmonella Typhimurium on chicken filets ([2]; 0.2% (w/v), day 1): 4.1 log10 colony forming units (CFU)/ml | Salmonella Typhimurium on chicken filets ([2]; 0.2% (w/v), day 2): 4.29 log10 colony forming units (CFU)/ml | Salmonella Typhimurium on chicken filets ([2]; 0.2% (w/v), day 5): 6.27 log10 colony forming units (CFU)/ml | Salmonella Typhimurium on chicken filets ([2]; 0.2% (w/v), day 6): 7.35 log10 colony forming units (CFU)/ml | Salmonella Typhimurium on chicken filets ([2]; 0.2% (w/v), day 7): 7.42 log10 colony forming units (CFU)/ml | Observed Relative Growth Rate [3, 6]: 0.58 | Observed Relative Growth Rate [4, 6]: 0.4763 | Observed Relative Growth Rate [5, 6]: 0.657

CCCCCCCCCC(=O)OC(C)C(=O)O (centres unmarked) [C10-lactylate, decanoyllactylate]
Observed Relative Growth Rate ([1]; 0.09% (w/w) in broth): 0.721 | Salmonella Typhimurium on chicken filets ([2]; 0.05% (w/v), day 0): 3.75 log10 colony forming units (CFU)/ml | Salmonella Typhimurium on chicken filets ([2]; 0.05% (w/v), day 1): 3.95 log10 colony forming units (CFU)/ml | Salmonella Typhimurium on chicken filets ([2]; 0.05% (w/v), day 2): 4.45 log10 colony forming units (CFU)/ml | Salmonella Typhimurium on chicken filets ([2]; 0.05% (w/v), day 5): 6.87 log10 colony forming units (CFU)/ml | Salmonella Typhimurium on chicken filets ([2]; 0.05% (w/v), day 6): 6.83 log10 colony forming units (CFU)/ml | Salmonella Typhimurium on chicken filets ([2]; 0.05% (w/v), day 7): 7.52 log10 colony forming units (CFU)/ml | Observed Relative Growth Rate ([3]; 0.09% (w/w) in broth): 0.912 | Observed Relative Growth Rate ([4]; 0.09% (w/w) in broth): 0.904 | Observed Relative Growth Rate ([5]; 0.09% (w/w) in broth): 0.766

CCCCCCCCCC(=O)OC(C)C(=O)OC(C)C(=O)[O-].[Na+] (centres unmarked) [sodium salt of capryl-lactyl-lactylate]
antimicrobial activity (Enterococcus faecalis): some antimicrobial activity | antimicrobial activity (Candida albicans): some antimicrobial activity

poly(imino(2-amino-1-oxo-1,6-hexanediyl)) [ε-polylysine]
Observed Relative Growth Rate [1, 7]: 0.4935 and 0.7370 and 0.4395 and 0.68 | Salmonella Typhimurium on chicken filets ([2]; 0.1% (w/v), day 0): 3.04 log10 colony forming units (CFU)/ml | Salmonella Typhimurium on chicken filets ([2]; 0.1% (w/v), day 1): 2.04 log10 colony forming units (CFU)/ml | Salmonella Typhimurium on chicken filets ([2]; 0.1% (w/v), day 2): 2.15 log10 colony forming units (CFU)/ml | Salmonella Typhimurium on chicken filets ([2]; 0.1% (w/v), day 5): 4.04 log10 colony forming units (CFU)/ml | Salmonella Typhimurium on chicken filets ([2]; 0.1% (w/v), day 6): 4.26 log10 colony forming units (CFU)/ml | Salmonella Typhimurium on chicken filets ([2]; 0.1% (w/v), day 7): 5.35 log10 colony forming units (CFU)/ml | reduction in numbers ([2]; single addition, after one day of incubation): 2 log10 | Observed Relative Growth Rate [3, 7]: 0.9645 and 0.971 and 0.9035 | Observed Relative Growth Rate [4, 7]: 0.943 and 0.9725 and 0.9520
